From patent publication US20210269434A1, “TRICYCLIC COMPOUNDS AS INHIBITORS OF KRAS” (Incyte Corporation, priority 2020, published 2021)

molecular target: KRAS G12D (Homo sapiens, UniProt P01116, G12D); test: GDP-GTP exchange assay (KRAS_G12D exchange); assay type: biochemical; settings: bodipy loaded KRAS G12D 2.5 nM; 4 hours incubation after GppNHp-SOS1; read-out: G12D_exchange
Protocol: Example A. GDP-GTP Exchange Assay
The inhibitor potency of the exemplified compounds was determined in a fluorescence based guanine nucleotide exchange assay, which measures the exchange of bodipy-GDP (fluorescently labeled GDP) for GppNHp (Non-hydrolyzable GTP analog) to generate the active state of KRAS in the presence of SOS1 (guanine nucleotide exchange factor). Inhibitors were serially diluted in DMSO and a volume of 0.1 μL was transferred to the wells of a black low volume 384-well plate. 5 μL/well volume of bodipy-loaded KRAS G12C diluted to 5 nM in assay buffer (25 mM Hepes pH 7.5, 50 mM NaCl, 10 mM MgCl2 and 0.01% Brij-35) was added to the plate and pre-incubated with inhibitor for 2 hours at ambient temperature. Appropriate controls (enzyme with no inhibitor or with a G12C inhibitor (AMG-510)) were included on the plate. The exchange was initiated by the addition of a 5 μL/well volume containing 1 mM GppNHp and 300 nM SOS1 in assay buffer. The 10 μL/well reaction concentration of the bodipy-loaded KRAS G12C, GppNHp, and SOS1 were 2.5 nM, 500 uM, and 150 nM, respectively. The reaction plates were incubated at ambient temperature for 2 hours, a time estimated for complete GDP-GTP exchange in the absence of inhibitor. For the KRAS G12D and G12V mutants, similar guanine nucleotide exchange assays were used with 2.5 nM as final concentration for the bodipy loaded KRAS proteins and with 4 hours and 3 hours incubation after adding GppNHp-SOS1 mixture for G12D and G12V respectively. A cyclic peptide described to selectively bind G12D mutant (Sakamoto et al., BBRC 484.3 (2017), 605-611) or internal compounds with confirmed binding were used as positive controls in the assay plates. Fluorescence intensities were measured on a PheraStar plate reader instrument (BMG Labtech) with excitation at 485 nm and emission at 520 nm.
Either GraphPad prism or XLfit was used to analyze the data. The IC50 values were derived by fitting the data to a four parameter logistic equation producing a sigmoidal dose-response curve with a variable Hill coefficient. Prism equation: Y=Bottom+(Top−Bottom)/(1+10^((Log lC50−X)*Hill slope)); XLfit equation: Y=(A+((B−A)/(1+((X/C)^D)))) where X is the logarithm of inhibitor concentration and Y is the response.

Chain of KRAS G12D (P01116 1-188 isoform P01116-2 G12D): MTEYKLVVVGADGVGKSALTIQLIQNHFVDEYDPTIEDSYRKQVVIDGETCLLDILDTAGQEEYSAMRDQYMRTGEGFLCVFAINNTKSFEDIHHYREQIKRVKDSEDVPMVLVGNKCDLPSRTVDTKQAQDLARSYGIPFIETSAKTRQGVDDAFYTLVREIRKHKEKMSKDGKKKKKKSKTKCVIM

**Q.** `CN(C)Cc1nc2c(N3CC(N(C)C)C3)nc3c(F)c(-c4cc(O)cc5ccccc45)c(Cl)cc3c2n1[C@H]1[C@H]2CN[C@@H]1C2` (racemic) [Example 49, 4-(1-((endo)-2-azabicyclo[2.1.1]hexan-5-yl)-8-chloro-4-(3-(dimethylamino)-azetidin-1-yl)-2-((dimethylamino)methyl)-6-fluoro-1H-imidazo[4,5-c]quinolin-7-yl)naphthalen-2-ol] was tested. Which IC50 did it give?
**A.** 5 to 10 µM

**Q.** For `CN(C)C(=O)CCc1nc2c(N3CC(N(C)C)C3)nc3c(Cc4ccccc4)c(-c4cc(O)cc5ccccc45)c(CCC#N)cc3c2n1[C@@H]1[C@@H]2CN[C@H]1C2` (racemic) [Example 294, 3-(6-benzyl-1-((endo)-2-azabicyclo[2.1.1]hexan-5-yl)-8-(2-cyanoethyl)-4-(3-(dimethylamino)azetidin-1-yl)-7-(3-hydroxynaphthalen-1-yl)-1H-imidazo[4,5-c]quinolin-2-yl)-N,N-dimethylpropanamide], which IC50 is on record?
**A.** 0.1 to 1 µM

**Q.** Which IC50 does the source give for `CN(C)C1CN(c2nc3c(F)c(-c4cc(O)cc5ccccc45)c(C#N)cc3c3c2ncn3[C@H]2[C@H]3CN[C@@H]2C3)C1` (relative stereo) [Example 50, 1-((endo)-2-azabicyclo[2.1.1]hexan-5-yl)-4-(3-(dimethylamino)azetidin-1-yl)-6-fluoro-7-(3-hydroxynaphthalen-1-yl)-1H-imidazo[4,5-c]quinoline-8-carbonitrile] here?
**A.** 0.1 to 1 µM

**Q.** How did the IC50 turn out when `CN(C)C1CN(c2nc3c(F)c(-c4cc(O)cc5ccccc45)c(Cl)cc3c3c2nc(CO)n3[C@H]2[C@H]3CN[C@@H]2C3)C1` (relative stereo) [Example 75, 4-(1-((endo)-2-azabicyclo[2.1.1]hexan-5-yl)-8-chloro-4-(3-(dimethylamino)-azetidin-1-yl)-6-fluoro-2-(hydroxymethyl)-1H-imidazo[4,5-c]quinolin-7-yl)naphthalen-2-ol] was run?
**A.** 0.1 to 1 µM

**Q.** With `CN(C)C1CN(c2nc3c(F)c(-c4cc(O)cc5ccccc45)c(Cl)cc3c3c2nc(CC2CCNCC2)n3[C@H]2[C@H]3CN[C@@H]2C3)C1` (relative stereo) [Example 77, 4-(1-((endo)-2-azabicyclo[2.1.1]hexan-5-yl)-8-chloro-4-(3-(dimethylamino)azetidin-1-yl)-6-fluoro-2-(piperidin-4-ylmethyl)-1H-imidazo[4,5-c]quinolin-7-yl)naphthalen-2-ol] as the molecule, how does the IC50 read?
**A.** 1 to 5 µM

**Q.** Which IC50 does the source give for `CN(C)C1CN(c2nc3c(F)c(-c4cc(O)cc5ccccc45)c(Cl)cc3c3c2nc(C2CCS(=O)(=O)CC2)n3[C@H]2[C@H]3CN[C@@H]2C3)C1` (relative stereo) [Example 79, 4-(1-((endo)-2-azabicyclo[2.1.1]hexan-5-yl)-8-chloro-4-(3-(dimethylamino)azetidin-1-yl)-6-fluoro-7-(3-hydroxynaphthalen-1-yl)-1H-imidazo[4,5-c]quinolin-2-yl)tetrahydro-2H-thiopyran 1,1-dioxide] here?
**A.** 0.1 to 1 µM

**Q.** How did the IC50 turn out when `CN(C)C1CN(c2nc3c(F)c(-c4cc(O)cc5ccc(Cl)cc45)c(Cl)cc3c3c2ncn3[C@H]2[C@H]3CN[C@@H]2C3)C1` (single isomer, unassigned) [Example 23a, 4-(1-((endo)-2-azabicyclo[2.1.1]hexan-5-yl)-8-chloro-4-(3-(dimethylamino)azetidin-1-yl)-6-fluoro-1H-imidazo[4,5-c]quinolin-7-yl)-6-chloronaphthalen-2-ol] was run?
**A.** 0.1 to 1 µM

**Q.** Which IC50 does the source give for `CN(C)C1CN(c2nc3c(F)c(-c4cc(O)cc5ccccc45)c(-c4cn[nH]c4)cc3c3c2ncn3[C@H]2[C@H]3CN[C@@H]2C3)C1` (single isomer, unassigned) [Example 25a, 4-(1-((endo)-2-azabicyclo[2.1.1]hexan-5-yl)-4-(3-(dimethylamino)azetidin-1-yl)-6-fluoro-8-(1H-pyrazol-4-yl)-1H-imidazo[4,5-c]quinolin-7-yl)naphthalen-2-ol] here?
**A.** 5 to 10 µM

**Q.** For `Cc1cc2c(nc(N3CC(N(C)C)C3)c3ncn([C@H]4[C@H]5CN[C@@H]4C5)c32)c(F)c1-c1cc(O)cc2ccccc12` (single isomer, unassigned) [Example 34a, 4-(1-((endo)-2-azabicyclo[2.1.1]hexan-5-yl)-4-(3-(dimethyl-amino)azetidin-1-yl)-6-fluoro-8-methyl-1H-imidazo[4,5-c]quinolin-7-yl)naphthalen-2-ol], which IC50 is on record?
**A.** 0.1 to 1 µM

**Q.** For `Oc1cc(-c2c(Cl)cc3c(nc(N4C5CCC4CNC5)c4ncn([C@H]5[C@H]6CN[C@@H]5C6)c43)c2F)c2ccccc2c1` (single isomer, unassigned) [Example 35a, 4-(1-((endo)-2-azabicyclo[2.1.1]hexan-5-yl)-4-(3,8-diazabicyclo[3.2.1]octan-8-yl)-8-chloro-6-fluoro-1H-imidazo[4,5-c]quinolin-7-yl)naphthalen-2-ol], which IC50 is on record?
**A.** 1 to 5 µM

**Q.** How did the IC50 turn out when `CN(C)C1CN(c2nc3c(F)c(-c4cc(O)cc5ccccc45)c(Cl)cc3c3c2ncn3[C@H]2[C@H]3CN[C@@H]2C3)C1` (single isomer, unassigned) [Example 48a, 4-(1-((endo)-2-azabicyclo[2.1.1]hexan-5-yl)-8-chloro-4-(3-(dimethylamino)azetidin-1-yl)-6-fluoro-1H-imidazo[4,5-c]quinolin-7-yl)naphthalen-2-ol] was run?
**A.** 0.1 to 1 µM

**Q.** `CN(C)C(=O)CCc1nc2c(N3CC(N(C)C)C3)nc3c(F)c(-c4cccc5ccc(F)cc45)c(CCC#N)cc3c2n1C1C2CNC1C2` (single isomer, unassigned) [Example 291b, 3-(1-((endo)-2-azabicyclo[2.1.1]hexan-5-yl)-8-(2-cyanoethyl)-4-(3-(dimethylamino)azetidin-1-yl)-6-fluoro-7-(7-fluoronaphthalen-1-yl)-1H-imidazo[4,5-c]quinolin-2-yl)-N,N-dimethylpropanamide] was tested. Which IC50 did it give?
**A.** ≤ 0.1 µM

**Q.** With `CCc1nc2c(N3CC(N(C)C)C3)nc3c(F)c(-c4cc(O)cc5ccc(F)cc45)c(CCC#N)cc3c2n1C1C2CNC1C2` (single isomer, unassigned) [Example 292b, 3-(1-((endo)-2-azabicyclo[2.1.1]hexan-5-yl)-4-(3-(dimethylamino)azetidin-1-yl)-2-ethyl-6-fluoro-7-(7-fluoro-3-hydroxynaphthalen-1-yl)-1H-imidazo[4,5-c]quinolin-8-yl)propanenitrile] as the molecule, how does the IC50 read?
**A.** ≤ 0.1 µM

**Q.** With `CNCCc1nc2c(N3CC(N(C)C)C3)nc3c(F)c(-c4cc(O)cc5ccccc45)c(-c4cn[nH]c4)cc3c2n1C1C2CNC1C2` (single isomer, unassigned) [Example 295b, 4-(1-((endo)-2-azabicyclo[2.1.1]hexan-5-yl)-4-(3-(dimethylamino)azetidin-1-yl)-6-fluoro-2-(2-(methylamino)ethyl)-8-(1H-pyrazol-4-yl)-1H-imidazo[4,5-c]quinolin-7-yl)naphthalen-2-ol] as the molecule, how does the IC50 read?
**A.** 0.1 to 1 µM

**Q.** `CCc1nc2c(N3CC(N(C)C)C3)nc3c(F)c(-c4cc(O)cc5ccccc45)c(CCC#N)cc3c2n1C1C2CC1N(Cc1ccc[nH]1)C2` (single isomer, unassigned) [Example 296b, 3-(1-((endo)-2-((1H-pyrrol-2-yl)methyl)-2-azabicyclo[2.1.1]hexan-5-yl)-4-(3-(dimethylamino)azetidin-1-yl)-2-ethyl-6-fluoro-7-(3-hydroxynaphthalen-1-yl)-1H-imidazo[4,5-c]quinolin-8-yl)propanenitrile] was tested. Which IC50 did it give?
**A.** ≤ 0.1 µM

**Q.** With `CN(C)C1CN(c2nc3c(F)c(-c4cc(O)cc5ccccc45)c(CCC#N)cc3c3c2nc(CN2CCOCC2=O)n3C2C3CNC2C3)C1` (single isomer, unassigned) [Example 300a, 3-(1-((endo)-2-azabicyclo[2.1.1]hexan-5-yl)-4-(3-(dimethylamino)azetidin-1-yl)-6-fluoro-7-(3-hydroxynaphthalen-1-yl)-2-((3-oxomorpholino)methyl)-1H-imidazo[4,5-c]quinolin-8-yl)propanenitrile] as the molecule, how does the IC50 read?
**A.** ≤ 0.1 µM

**Q.** `CN(C)C1CN(c2nc3c(F)c(-c4cc(O)cc5ccccc45)c(CCC#N)cc3c3c2nc(-c2csc(N4CCNCC4)n2)n3C2C3CNC2C3)C1` (single isomer, unassigned) [Example 302a, 3-(1-((endo)-2-azabicyclo[2.1.1]hexan-5-yl)-4-(3-(dimethylamino)azetidin-1-yl)-6-fluoro-7-(3-hydroxynaphthalen-1-yl)-2-(2-(piperazin-1-yl)thiazol-4-yl)-1H-imidazo[4,5-c]quinolin-8-yl)propanenitrile] was tested. Which IC50 did it give?
**A.** ≤ 0.1 µM

**Q.** For `Cc1nc2c(N3CC(N(C)C)C3)nc3c(F)c(-c4cc(O)cc5ccccc45)c(Cl)cc3c2n1[C@H]1[C@H]2CN[C@@H]1C2` [Example 15, 4-(1-((endo)-2-azabicyclo[2.1.1]hexan-5-yl)-8-chloro-4-(3-(dimethylamino)-azetidin-1-yl)-6-fluoro-2-methyl-1H-imidazo[4,5-c]quinolin-7-yl)naphthalen-2-ol], which IC50 is on record?
**A.** 1 to 5 µM
